Earlier results as cited in patent US20260217893A1, “ACID-BLOCKED PYRROLIDINE CATALYSTS FOR POLYURETHANE FOAM” (Huntsman Petrochemical LLC, priority 2019, published 2026).

details: refs 2-5: CRC Handbook, U.S. Pat. No. 9,051,442, J. Org. Chem. 1961, J. Chem. Eng. Data 2016

| pKa | SMILES |
| --- | --- |
| 9.18 | CN(C)CCN(C)CCO [JEFFCAT ® Z-110, N,N,N-trimethylaminoethyl-ethanolamine] |
| 9.1 | CN(C)CCOCCO [JEFFCAT ® ZR-70, 2-(2-dimethylaminoethoxy) ethanol] |
| 9.1 | CN(C)CCN(C)CCN(C)C [PMDETA, pentamethyldiethylenetriamine] |

| SMILES | pKa |
| --- | --- |
| CN(C)C1CCCCC1 [dimethylcyclohexylamine, N,N-dimethylcyclohexylamine] | 10.1 |
